Laboratory results published in the supplement of paper PMC10307832.

Key:
Assay in all cases: relative viability (nuclei count vs DMSO), 5 days (fraction); higher = more cells survive
LCLC-97TM1 = test system: LCLC-97TM1
Procedure, shortened: (§1)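 Relative viability was taken as the ratio of nuclei in treated wells to nuclei in vehicle wells. Lung cancer cell lines in 1536-well plates received compounds by pin tool one day after seeding, either one drug alone or a fixed anchor-drug dose plus five library-drug doses (not always all listed) in √10 steps. Nuclei were counted on 4× images after 5 days of treatment, and values are medians of duplicate plates.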

NCI-H661 = test system: NCI-H661
Procedure, shortened: as §1

NCI-H1651 = test system: NCI-H1651
Procedure, shortened: as §1

NCI-H650 = test system: NCI-H650
Procedure, shortened: as §1

NCI-H358 = test system: NCI-H358
Procedure, shortened: as §1

NCI-H2087 = test system: NCI-H2087
Procedure, shortened: as §1

NCI-H2342 = test system: NCI-H2342
Procedure, shortened: as §1

SK-MES-1 = test system: SK-MES-1
Procedure, shortened: as §1

NCI-H596 = test system: NCI-H596
Procedure, shortened: as §1

PC-3 [JPC-3] = test system: PC-3 [JPC-3]
Procedure, shortened: as §1

NCI-H1355 = test system: NCI-H1355
Procedure, shortened: as §1

For `CC(=O)O[C@@]12CO[C@@H]1C[C@H](O)[C@@]1(C)C(=O)[C@H](O)C3=C(C)[C@@H](OC(=O)[C@H](O)[C@@H](NC(=O)OC(C)(C)C)c4ccccc4)C[C@@](O)([C@@H](OC(=O)c4ccccc4)[C@H]21)C3(C)C` [Docetaxel] + N=C(N)NC(=N)NCCc1ccccc1 [Phenformin] (partner 250 µM), the relative viability (LCLC-97TM1; first compound 0.0002 µM) was 0.403, the relative viability (LCLC-97TM1; first compound 0.000632 µM) was 0.366 and the relative viability (LCLC-97TM1; first compound 0.002 µM) was 0.267. It also gave a relative viability (LCLC-97TM1; first compound 0.006325 µM) of 0.162, a relative viability (LCLC-97TM1; first compound 0.02 µM) of 0.131 and a relative viability (NCI-H661; first compound 0.0002 µM) of 0.334. For the same compound, the relative viability (NCI-H661; first compound 0.000632 µM) was 0.32, the relative viability (NCI-H661; first compound 0.002 µM) was 0.317 and the relative viability (NCI-H661; first compound 0.006325 µM) was 0.267. For the same compound, the relative viability (NCI-H661; first compound 0.02 µM) was 0.221, the relative viability (NCI-H1651; first compound 0.0002 µM) was 0.266 and the relative viability (NCI-H1651; first compound 0.000632 µM) was 0.342. For the same compound, the relative viability (NCI-H1651; first compound 0.002 µM) was 0.194, the relative viability (NCI-H1651; first compound 0.006325 µM) was 0.087 and the relative viability (NCI-H1651; first compound 0.02 µM) was 0.0897. For the same compound, the relative viability (NCI-H650; first compound 0.0002 µM) was 0.447, the relative viability (NCI-H650; first compound 0.000632 µM) was 0.397 and the relative viability (NCI-H650; first compound 0.002 µM) was 0.332. For the same compound, the relative viability (NCI-H650; first compound 0.006325 µM) was 0.19, the relative viability (NCI-H650; first compound 0.02 µM) was 0.21 and the relative viability (NCI-H358; first compound 0.0002 µM) was 0.247. The relative viability (NCI-H358; first compound 0.000632 µM) was 0.188, the relative viability (NCI-H358; first compound 0.006325 µM) was 0.0907 and the relative viability (NCI-H358; first compound 0.02 µM) was 0.0664. For the same compound, the relative viability (NCI-H2087; first compound 0.0002 µM) was 0.44, the relative viability (NCI-H2087; first compound 0.000632 µM) was 0.38 and the relative viability (NCI-H2087; first compound 0.002 µM) was 0.152. The relative viability (NCI-H2087; first compound 0.006325 µM) was 0.159, the relative viability (NCI-H2087; first compound 0.02 µM) was 0.0907 and the relative viability (NCI-H2342; first compound 0.0002 µM) was 0.478. For the same compound, the relative viability (NCI-H2342; first compound 0.000632 µM) was 0.596, the relative viability (NCI-H2342; first compound 0.002 µM) was 0.625 and the relative viability (NCI-H2342; first compound 0.006325 µM) was 0.4. The relative viability (NCI-H2342; first compound 0.02 µM) was 0.343, the relative viability (SK-MES-1; first compound 0.0002 µM) was 0.664 and the relative viability (SK-MES-1; first compound 0.000632 µM) was 0.667. The relative viability (SK-MES-1; first compound 0.002 µM) was 0.364, the relative viability (SK-MES-1; first compound 0.006325 µM) was 0.273 and the relative viability (SK-MES-1; first compound 0.02 µM) was 0.179. The relative viability (NCI-H596; first compound 0.0002 µM) was 0.827, the relative viability (NCI-H596; first compound 0.000632 µM) was 0.773 and the relative viability (NCI-H596; first compound 0.002 µM) was 0.635. For the same compound, the relative viability (NCI-H596; first compound 0.006325 µM) was 0.438, the relative viability (NCI-H596; first compound 0.02 µM) was 0.235 and the relative viability (PC-3 [JPC-3]; first compound 0.0002 µM) was 0.484. It also gave a relative viability (PC-3 [JPC-3]; first compound 0.000632 µM) of 0.48, a relative viability (PC-3 [JPC-3]; first compound 0.002 µM) of 0.371 and a relative viability (PC-3 [JPC-3]; first compound 0.006325 µM) of 0.246. It also gave a relative viability (PC-3 [JPC-3]; first compound 0.02 µM) of 0.138, a relative viability (NCI-H1355; first compound 0.0002 µM) of 0.463 and a relative viability (NCI-H1355; first compound 0.000632 µM) of 0.402. It also gave a relative viability (NCI-H1355; first compound 0.002 µM) of 0.385, a relative viability (NCI-H1355; first compound 0.006325 µM) of 0.287 and a relative viability (NCI-H1355; first compound 0.02 µM) of 0.217.
